This is an account of results in ChEMBL document CHEMBL5674886, “GLUT4 expression and glucose transport in human induced pluripotent stem cell-derived cardiomyocytes” (PLoS One, 2019).

As usually defined, the IC50 is the point on the concentration scale where inhibition reaches its midpoint. High values mean a need for much substance, low ones inhibition by little substance. What is called inhibition is the share of the control response that was lost under treatment.

Common to all, as to assay type: cell-based
The target of assay [1] is T1, Solute carrier family 2, facilitated glucose transporter member 4 (Homo sapiens, UniProt P14672).
T1 sequence (P14672 whole entry): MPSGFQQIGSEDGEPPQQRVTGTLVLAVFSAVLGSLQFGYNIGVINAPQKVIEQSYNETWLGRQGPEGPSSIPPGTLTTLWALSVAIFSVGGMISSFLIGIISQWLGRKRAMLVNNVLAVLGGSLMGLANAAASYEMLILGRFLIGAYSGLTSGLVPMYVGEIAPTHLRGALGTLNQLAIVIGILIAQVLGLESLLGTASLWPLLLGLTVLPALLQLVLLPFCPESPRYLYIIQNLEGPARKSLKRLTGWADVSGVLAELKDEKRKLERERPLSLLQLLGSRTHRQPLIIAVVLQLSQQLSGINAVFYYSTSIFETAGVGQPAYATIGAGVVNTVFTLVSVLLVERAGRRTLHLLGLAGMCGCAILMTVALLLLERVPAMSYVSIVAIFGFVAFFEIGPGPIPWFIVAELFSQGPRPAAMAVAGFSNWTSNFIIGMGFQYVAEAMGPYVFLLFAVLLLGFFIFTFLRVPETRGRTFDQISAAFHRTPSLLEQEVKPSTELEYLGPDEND
The experiment in a line: Inhibition of human GLUT4 expressed in CHO cells measured after 15 mins by cell-titer-Glo luminescent cell viability assay.

The target in assay [2] is T2, Solute carrier family 2, facilitated glucose transporter member 1 (Mus musculus) (UniProt P17809).
T2 sequence (whole entry): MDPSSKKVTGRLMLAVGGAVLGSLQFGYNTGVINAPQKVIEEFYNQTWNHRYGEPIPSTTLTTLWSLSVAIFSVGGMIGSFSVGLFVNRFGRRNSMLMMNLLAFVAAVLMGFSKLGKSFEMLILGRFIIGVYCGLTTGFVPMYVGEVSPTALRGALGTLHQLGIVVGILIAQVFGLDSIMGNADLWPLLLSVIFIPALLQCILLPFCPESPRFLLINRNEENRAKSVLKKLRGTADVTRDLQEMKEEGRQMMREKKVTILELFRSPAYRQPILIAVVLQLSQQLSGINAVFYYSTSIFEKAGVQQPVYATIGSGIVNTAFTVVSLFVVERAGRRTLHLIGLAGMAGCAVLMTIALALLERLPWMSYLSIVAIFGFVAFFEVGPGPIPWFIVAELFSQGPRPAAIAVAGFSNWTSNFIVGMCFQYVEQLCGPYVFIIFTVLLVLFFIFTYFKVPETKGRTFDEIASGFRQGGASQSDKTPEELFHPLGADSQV
The experiment in a line: Inhibition of GLUT1 in mouse 3T3-L1 cells assessed as reduction in insulin-stimulated [3H]-2-deoxyglucose uptake at 20 nM incubated for 30 mins by [3H]-2-deoxyglucose uptake assay.

In assay [3] the target is T2, Solute carrier family 2, facilitated glucose transporter member 1 (Mus musculus). The experiment in a line: Inhibition of GLUT1 in mouse 3T3-L1 cells assessed as reduction in insulin-stimulated [3H]-2-deoxyglucose uptake at 2 uM incubated for 30 mins by [3H]-2-deoxyglucose uptake assay.

In turn, `Cc1c(NC(=O)c2cc(C(N)=O)nc3cc(F)ccc23)c(C(F)(F)F)nn1Cc1ccc(C#N)cc1` [BAY-876] registered an IC50 in assay [1] of 200 nM. In addition, the inhibition in assay [2] is 25%; in assay [3], 100%.
